In PubChem BioAssay (NCI):
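Tested at 5 concentrations; 48 h exposure; 96-well plates; endpoints linearly interpolated, else capped at highest concentration. The concentration for 50% growth inhibition is given as GI50. TGI: total growth inhibition.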

Columns and labels:
Test in all cases: DTP human tumour cell line panel, 48 h
NCI/ADR-RES ovarian = tested on: NCI/ADR-RES ovarian
NCI-H460 lung = tested on: NCI-H460 lung
OVCAR-5 ovarian = tested on: OVCAR-5 ovarian
CCRF-CEM leukemia = tested on: CCRF-CEM leukemia
SF-539 CNS = tested on: SF-539 CNS
COLO 205 colon = tested on: COLO 205 colon
M14 melanoma = tested on: M14 melanoma
HOP-62 NSCLC = tested on: HOP-62 NSCLC
SR leukemia = tested on: SR leukemia
MALME-3M melanoma = tested on: MALME-3M melanoma
SK-OV-3 ovarian = tested on: SK-OV-3 ovarian
UACC-257 melanoma = tested on: UACC-257 melanoma
SNB-19 CNS = tested on: SNB-19 CNS
DU-145 prostate = tested on: DU-145 prostate
OVCAR-8 ovarian = tested on: OVCAR-8 ovarian
HT29 colon = tested on: HT29 colon
A498 renal = tested on: A498 renal
BT-549 breast = tested on: BT-549 breast
NCI-H23 lung = tested on: NCI-H23 lung
SW-620 colon = tested on: SW-620 colon
UACC-62 melanoma = tested on: UACC-62 melanoma
A549 NSCLC = tested on: A549 NSCLC
SF-295 CNS = tested on: SF-295 CNS
HOP-92 NSCLC = tested on: HOP-92 NSCLC
MOLT-4 leukemia = tested on: MOLT-4 leukemia
IGROV1 ovarian = tested on: IGROV1 ovarian
ACHN renal = tested on: ACHN renal
RXF 393 renal = tested on: RXF 393 renal
SK-MEL-2 melanoma = tested on: SK-MEL-2 melanoma
SNB-75 CNS = tested on: SNB-75 CNS
HCC-2998 colon = tested on: HCC-2998 colon
SK-MEL-5 melanoma = tested on: SK-MEL-5 melanoma
EKVX NSCLC = tested on: EKVX NSCLC
HCT-116 colon = tested on: HCT-116 colon
MDA-MB-435 = tested on: MDA-MB-435
786-0 renal = tested on: 786-0 renal
T-47D breast = tested on: T-47D breast
KM12 colon = tested on: KM12 colon
HL-60(TB) leukemia = tested on: HL-60(TB) leukemia
NCI-H522 lung = tested on: NCI-H522 lung
K-562 leukemia = tested on: K-562 leukemia
UO-31 renal = tested on: UO-31 renal
LOX IMVI melanoma = tested on: LOX IMVI melanoma
SK-MEL-28 melanoma = tested on: SK-MEL-28 melanoma
PC-3 prostate = tested on: PC-3 prostate
U251 CNS = tested on: U251 CNS
HS 578T breast = tested on: HS 578T breast
CAKI-1 renal = tested on: CAKI-1 renal
SF-268 CNS = tested on: SF-268 CNS
MCF7 breast = tested on: MCF7 breast
SN12C renal = tested on: SN12C renal
NCI-H226 lung = tested on: NCI-H226 lung
OVCAR-4 ovarian = tested on: OVCAR-4 ovarian
HCT-15 colon = tested on: HCT-15 colon
RPMI-8226 leukemia = tested on: RPMI-8226 leukemia
TK-10 renal = tested on: TK-10 renal
MDA-MB-231 breast = tested on: MDA-MB-231 breast

Cn1ccnc1C(=O)/C=C/c1ccc(CNC(=O)c2ccc(F)cc2)cc1 gave a GI50 (NCI/ADR-RES ovarian) of 6.06 µM, a TGI (NCI/ADR-RES ovarian) of over 25 µM and a GI50 (NCI-H460 lung) of 3.4 µM. The TGI (NCI-H460 lung) was 10.5 µM, the GI50 (OVCAR-5 ovarian) was 3.54 µM and the TGI (OVCAR-5 ovarian) was 9.04 µM. For the same molecule, the GI50 (CCRF-CEM leukemia) was 2.55 µM, the TGI (CCRF-CEM leukemia) was over 25 µM and the GI50 (SF-539 CNS) was 2.59 µM. It also gave a TGI (SF-539 CNS) of 6.28 µM, a GI50 (COLO 205 colon) of 2.78 µM and a TGI (COLO 205 colon) of 7.05 µM. It also gave a GI50 (M14 melanoma) of 4.7 µM, a TGI (M14 melanoma) of 12.2 µM and a GI50 (HOP-62 NSCLC) of 3.69 µM. For the same molecule, the TGI (HOP-62 NSCLC) was 12.5 µM, the GI50 (SR leukemia) was 0.792 µM and the TGI (SR leukemia) was over 25 µM. For the same molecule, the GI50 (MALME-3M melanoma) was 4.48 µM, the TGI (MALME-3M melanoma) was 12.2 µM and the GI50 (SK-OV-3 ovarian) was 7.54 µM. It also gave a TGI (SK-OV-3 ovarian) of over 25 µM, a GI50 (UACC-257 melanoma) of 5.52 µM and a TGI (UACC-257 melanoma) of 19.2 µM. For the same molecule, the GI50 (SNB-19 CNS) was 3.39 µM, the TGI (SNB-19 CNS) was 10.5 µM and the GI50 (DU-145 prostate) was 1.5 µM. For the same molecule, the TGI (DU-145 prostate) was 4.89 µM, the GI50 (OVCAR-8 ovarian) was 6.62 µM and the TGI (OVCAR-8 ovarian) was over 25 µM. For the same molecule, the GI50 (HT29 colon) was 2.98 µM, the TGI (HT29 colon) was 7.36 µM and the GI50 (A498 renal) was 3.35 µM. For the same molecule, the TGI (A498 renal) was 6.79 µM, the GI50 (BT-549 breast) was 2.61 µM and the TGI (BT-549 breast) was 6.77 µM. It also gave a GI50 (NCI-H23 lung) of 3.58 µM, a TGI (NCI-H23 lung) of 9.3 µM and a GI50 (SW-620 colon) of 2.77 µM. It also gave a TGI (SW-620 colon) of 8.72 µM, a GI50 (UACC-62 melanoma) of 4.26 µM and a TGI (UACC-62 melanoma) of 9.47 µM. For the same molecule, the GI50 (A549 NSCLC) was 5.74 µM, the TGI (A549 NSCLC) was over 25 µM and the GI50 (SF-295 CNS) was 9.12 µM. For the same molecule, the TGI (SF-295 CNS) was over 25 µM, the GI50 (HOP-92 NSCLC) was 5.32 µM and the TGI (HOP-92 NSCLC) was 24.7 µM. It also gave a GI50 (MOLT-4 leukemia) of 5.03 µM, a TGI (MOLT-4 leukemia) of 15.8 µM and a GI50 (IGROV1 ovarian) of 3.03 µM. It also gave a TGI (IGROV1 ovarian) of 12.1 µM, a GI50 (ACHN renal) of 4.17 µM and a TGI (ACHN renal) of 8.72 µM. The GI50 (RXF 393 renal) was 3.11 µM, the TGI (RXF 393 renal) was 7.27 µM and the GI50 (SK-MEL-2 melanoma) was 4.95 µM. For the same molecule, the TGI (SK-MEL-2 melanoma) was 14.8 µM, the GI50 (SNB-75 CNS) was 2.5 µM and the TGI (SNB-75 CNS) was over 25 µM. It also gave a GI50 (HCC-2998 colon) of 3.8 µM, a TGI (HCC-2998 colon) of 7.54 µM and a GI50 (SK-MEL-5 melanoma) of 7.08 µM. It also gave a TGI (SK-MEL-5 melanoma) of 21 µM, a GI50 (EKVX NSCLC) of 10.4 µM and a TGI (EKVX NSCLC) of over 25 µM. The GI50 (HCT-116 colon) was 3.46 µM, the TGI (HCT-116 colon) was 8.47 µM and the GI50 (MDA-MB-435) was 4.08 µM. It also gave a TGI (MDA-MB-435) of 10.4 µM, a GI50 (786-0 renal) of 4.12 µM and a TGI (786-0 renal) of 12.1 µM. It also gave a GI50 (T-47D breast) of 2.54 µM, a TGI (T-47D breast) of 22.9 µM and a GI50 (KM12 colon) of 2.13 µM. The TGI (KM12 colon) was 5.44 µM, the GI50 (HL-60(TB) leukemia) was 2.99 µM and the TGI (HL-60(TB) leukemia) was 10.4 µM. It also gave a GI50 (NCI-H522 lung) of 4.04 µM, a TGI (NCI-H522 lung) of 7.74 µM and a GI50 (K-562 leukemia) of 1.02 µM. For the same molecule, the TGI (K-562 leukemia) was over 25 µM, the GI50 (UO-31 renal) was 2.63 µM and the TGI (UO-31 renal) was 6.19 µM. It also gave a GI50 (LOX IMVI melanoma) of 1.19 µM, a TGI (LOX IMVI melanoma) of 4.4 µM and a GI50 (SK-MEL-28 melanoma) of 4.82 µM. The TGI (SK-MEL-28 melanoma) was 11.6 µM, the GI50 (PC-3 prostate) was 3.87 µM and the TGI (PC-3 prostate) was 10.8 µM. The GI50 (U251 CNS) was 2.35 µM, the TGI (U251 CNS) was 6.7 µM and the GI50 (HS 578T breast) was 8.13 µM. For the same molecule, the TGI (HS 578T breast) was over 25 µM, the GI50 (CAKI-1 renal) was 2.36 µM and the TGI (CAKI-1 renal) was over 25 µM. The GI50 (SF-268 CNS) was 2.98 µM, the TGI (SF-268 CNS) was 9.42 µM and the GI50 (MCF7 breast) was 1.67 µM. The TGI (MCF7 breast) was over 25 µM, the GI50 (SN12C renal) was 6.67 µM and the TGI (SN12C renal) was over 25 µM. For the same molecule, the GI50 (NCI-H226 lung) was 6.9 µM, the TGI (NCI-H226 lung) was over 25 µM and the GI50 (OVCAR-4 ovarian) was 5.49 µM. For the same molecule, the TGI (OVCAR-4 ovarian) was over 25 µM, the GI50 (HCT-15 colon) was 1.9 µM and the TGI (HCT-15 colon) was over 25 µM. The GI50 (RPMI-8226 leukemia) was 1.01 µM, the TGI (RPMI-8226 leukemia) was 5.98 µM and the GI50 (TK-10 renal) was 5.92 µM. The TGI (TK-10 renal) was 17.4 µM, the GI50 (MDA-MB-231 breast) was 5.9 µM and the TGI (MDA-MB-231 breast) was over 25 µM.

NC(N)=Nc1ccc(Nc2cccc(Oc3ccc(Cl)c(C(F)(F)F)c3)c2)cn1 showed a GI50 (NCI/ADR-RES ovarian) of 15.6 µM, a TGI (NCI/ADR-RES ovarian) of over 100 µM and a GI50 (SK-OV-3 ovarian) of 3.5 µM. For the same molecule, the TGI (SK-OV-3 ovarian) was 13.2 µM, the GI50 (SNB-75 CNS) was 1.6 µM and the TGI (SNB-75 CNS) was 3.33 µM. The GI50 (T-47D breast) was 1.62 µM, the TGI (T-47D breast) was 4.55 µM and the GI50 (K-562 leukemia) was 2.11 µM. For the same molecule, the TGI (K-562 leukemia) was over 100 µM.
